Where two headings read alike, the source gives them in different places.
Tests used:
[1] = test system: Patients with a clinical diagnosis of non-alcoholic hepatic steatosis; assay: Liver stiffness according to Fibroscan or ARFI, phase II clinical trial; assay type: in vivo, human
Method: A double-blinded, randomized, placebo-controlled phase II clinical trial was conducted as described in the following.
Patients with a clinical diagnosis of non-alcoholic hepatic steatosis were randomized to a 12-week treatment period and a 4-week follow-up. Patients were divided into three groups. The first groups received 1,500 mg Nor-UDCA per day (6 capsules with 250 mg Nor-UDCA in each capsule). The second group received 500 mg Nor-UDCA per day (2 capsules with 250 mg Nor-UDCA in each capsule and 4 capsules with 250 mg placebo in each capsule). The third group received 6 capsules with 250 mg placebo in each capsule.
A) If available, Fibroscan examinations were performed at V1 or within 4 weeks before and 1 week after V1 and at V6. For the purpose of this measurement, patients should be fasting.
Fibroscan is a non-invasive device (Echosens, France) for the detection steatosis hepatis by vibration-controlled transient elastography. It consists of a vibrator device coupled to an ultrasound system. The signal from this device allows a calculation of stiffness of scanned tissue, and thereby an assessment of the extent of disease. Results of liver elasticity are to be expressed by stiffness (kPa) and success rate (%).
During measurement, an ultrafast pulse echosequence is emitted (pulse repetition frequency of 6 kHz) during the propagation of the controlled shear wave. The acquisition lasts only 80 ms and strains induced in the liver by the propagation of the shear wave is measured using standard autocorrelation approach between successive ultrasound lines. Stiffness values were obtained in kPA.
Liver stiffness was measured using either of two probes (M-probe or XL-probe) and documented with the following respective thresholds for different stages:
Stage 0/1 (i.e. <stage 2): <7.0 kPa (threshold)
Stage 0/1 (i.e. <stage 2): <6.2 kPa (threshold)
B) If available, Acoustic radiation force impulse imaging (ARFI) examinations were performed at V1 or within 4 weeks before and 1 week after V1 and at V6. ARFI measurements were documented with the following thresholds for different stages:
Stage 0/1 (i.e. <stage 2): <1.34 m/s (threshold)

[2] = test system: mouse models of obesity and steatosis; conditions: cited from earlier work
[3] = N500 (500 mg Nor-UDCA per day), V1 screening
[4] = N500 (500 mg Nor-UDCA per day), V6-LOCF week 12
[5] = N1500 (1,500 mg Nor-UDCA per day), V1 screening
[6] = N1500 (1,500 mg Nor-UDCA per day), V6-LOCF week 12

CC(CC(=O)O)[C@H]1CCC2[C@H]3C(CC[C@@]21C)[C@@]1(C)CCC(O)C[C@H]1C[C@@H]3O (stereo partly shown) [Nor-UDCA, 24-nor-ursodeoxycholic acid]
Number (%) of patients, liver stiffness Stage 0/1 [1, 3]: 62.5% | Number (%) of patients, liver stiffness Stage = 4 [1, 3]: 12.5% | Number (%) of patients, liver stiffness Stage ≥2 [1, 3]: 14.6% | Number (%) of patients, liver stiffness Stage ≥3 [1, 3]: 10.4% | Number (%) of patients, liver stiffness Stage 0/1 [1, 4]: 58.3% | Number (%) of patients, liver stiffness Stage = 4 [1, 4]: 10.4% | Number (%) of patients, liver stiffness Stage ≥2 [1, 4]: 22.9% | Number (%) of patients, liver stiffness Stage ≥3 [1, 4]: 8.3% | Number (%) of patients, liver stiffness Stage 0/1 [1, 5]: 55.6% | Number (%) of patients, liver stiffness Stage = 4 [1, 5]: 19.4% | Number (%) of patients, liver stiffness Stage ≥2 [1, 5]: 17.6% | Number (%) of patients, liver stiffness Stage ≥3 [1, 5]: 8.3% | Number (%) of patients, liver stiffness Stage 0/1 [1, 6]: 67.5% | Number (%) of patients, liver stiffness Stage = 4 [1, 6]: 15.0% | Number (%) of patients, liver stiffness Stage ≥2 [1, 6]: 12.5% | Number (%) of patients, liver stiffness Stage ≥3 [1, 6]: 5.0% | percentage of patients with stage 0/1 liver stiffness, change in the course of the study ([1]; group receiving 500 mg Nor-UDCA): decreased | reduction in ALT ([2]; mouse model of obesity and steatosis, Steinacher et al. (2015)): significant reduction | reduction in ALT ([2]; mouse models of obesity and steatosis, Steinacher et al. (2017)): considerable reduction
